The source of these data is article PMC9897432 (Proceedings of the National Academy of Sciences of the …, 2022).

For test [1], the system named is panel of 300 recombinant human kinases. It is filed as biochemical. The note with it: 0.5 µM, panel of 300 kinases.
A further test relates to osteoclastogenesis. The note with it: via off-target actions on M-CSF signaling; cited from earlier work.

Each structure is given as a SMILES string.

In the case of `COc1ccc(N2C(=O)N(c3c(C)cccc3Cl)Cc3cnc(Nc4ccc(C5CCN(C)CC5)cc4OC)nc32)nc1` [YKL-05-099], the “S(80): portion of kinases tested inhibited >80%” value in test [1] was 43/300. Also, in the test with osteoclastogenesis, the “osteoclast maturation (in words)” value is on record as “directly blocks osteoclast maturation”.
